Assays:
[1] = Porphyrin elimination after oral administration of 5-aminolevulinic acid; assay type: in vivo
Method: The patient is administered 5-aminolevulinic acid (also referred to as 8-aminolevulinic acid), which is the first compound in the porphyrin synthesis pathway (i.e., the pathway that leads to heme in mammals). The 5-aminolevulinic acid is preferably administered orally at a dosage of approximately 5 mg of 5-aminolevulinic acid per kilogram of the patient's body weight. The patient can drink water upon taking the 5-aminolevulinic acid. The patient can wait approximately eight hours before urinating.
Approximately eight hours after oral administration of the 5-aminolevulinic acid, a bodily fluid sample is collected from the patient, and this bodily fluid sample is optically analyzed to measure a concentration of porphyrin therein. Preferably, multiple bodily fluid samples are taken at two hour intervals (i.e., one initial sample at the time of administration, and then subsequent samples taken at two hours, four hours, six hours and eight hours after administration). The bodily fluid being analyzed may be urine and/or blood.
Porphyrin is synthesized by the 5-aminolevulinic acid which is administered to the patient.

[2] = porphyrin synthesized from administered 5-aminolevulinic acid; cited from earlier work

- porphyrin retention time ([1]; bladder cancer patients): up to eight
- porphyrin eliminated through urine ([1]; healthy person, after four hours following administration of 5-aminolevulinic acid): approximately 90%
Structure (SMILES): C1=Cc2cc3ccc(cc4nc(cc5ccc(cc1n2)[nH]5)C=C4)[nH]3 [Porphyrin, porphyrin]
- half-life [2]: approximately two

Source: patent US9733187B2, “Method of detecting bladder cancer by optical analysis of bodily fluids” (KING SAUD UNIVERSITY, priority 2015, dated 2017)
